Blank lines part the entries; values can stand above or below the compound they belong to.
Tested on: 885724-159-R-J1-PDC complex spheroid viability
Assay: Anticancer human tumor 885724-159-R-J1-PDC patient-derived pancreatic adenocarcinoma cell line growth inhibition [GQUAD]
Conditions: for IC50: curve of first compound; for viability, T/C: stronger effect = lower value
In short: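 Tumor cells were grown as complex spheroids with HUVEC endothelial cells and mesenchymal stem cells as stroma. G-quadruplex stabilizers were combined with targeted agents over half-log dilutions from near the clinical Cmax, or from 10 microM.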

[1] = second compound 0.0316 µM, first compound 0.0316 µM
[2] = second compound 0.0316 µM, first compound 0.1 µM
[3] = second compound 0.0316 µM, first compound 0.316 µM
[4] = second compound 0.0316 µM, first compound 1 µM
[5] = second compound 0.0316 µM, first compound 3.16 µM
[6] = second compound 0.0316 µM, first compound 10 µM
[7] = second compound 0.1 µM, first compound 0.0316 µM
[8] = second compound 0.1 µM, first compound 0.1 µM
[9] = second compound 0.1 µM, first compound 0.316 µM
[10] = second compound 0.1 µM, first compound 1 µM
[11] = second compound 0.1 µM, first compound 3.16 µM
[12] = second compound 0.1 µM, first compound 10 µM
[13] = second compound 0.316 µM, first compound 0.0316 µM
[14] = second compound 0.316 µM, first compound 0.1 µM
[15] = second compound 0.316 µM, first compound 0.316 µM
[16] = second compound 0.316 µM, first compound 1 µM
[17] = second compound 0.316 µM, first compound 3.16 µM
[18] = second compound 0.316 µM, first compound 10 µM
[19] = second compound 1 µM, first compound 0.0316 µM
[20] = second compound 1 µM, first compound 0.1 µM
[21] = second compound 1 µM, first compound 0.316 µM
[22] = second compound 1 µM, first compound 1 µM
[23] = second compound 1 µM, first compound 3.16 µM
[24] = second compound 1 µM, first compound 10 µM
[25] = second compound 3.16 µM, first compound 0.0316 µM
[26] = second compound 3.16 µM, first compound 0.1 µM
[27] = second compound 3.16 µM, first compound 0.316 µM
[28] = second compound 3.16 µM, first compound 1 µM
[29] = second compound 3.16 µM, first compound 3.16 µM
[30] = second compound 3.16 µM, first compound 10 µM
[31] = second compound 10 µM, first compound 0.0316 µM
[32] = second compound 10 µM, first compound 0.1 µM
[33] = second compound 10 µM, first compound 0.316 µM
[34] = second compound 10 µM, first compound 1 µM
[35] = second compound 10 µM, first compound 3.16 µM
[36] = second compound 10 µM, first compound 10 µM
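Further: spheroids exposed to agents for seven days before readout.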
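Wherever viability, T/C is given: percent of vehicle control viability where 100% = DMSO wells.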

Compound: CC(=O)O[C@H]1C(=O)[C@@]2(C)[C@H]([C@H](OC(=O)c3ccccc3)[C@]3(O)C[C@H](OC(=O)[C@H](O)[C@@H](NC(=O)c4ccccc4)c4ccccc4)C(C)=C1C3(C)C)[C@]1(OC(C)=O)CO[C@@H]1C[C@@H]2O + Cc1cnc(CNC(=O)c2c(=O)c3ccc(N4CCCN(C)CC4)nc3n3c2sc2ccccc23)cn1
IC50 (second compound 0.0316 µM): > 10 µM
IC50 (second compound 0.1 µM): > 10 µM
IC50 (second compound 0.316 µM): > 10 µM
IC50 (second compound 1 µM): > 10 µM
IC50 (second compound 3.16 µM): > 10 µM
IC50 (second compound 10 µM): > 10 µM
viability, T/C [1]: 103%
viability, T/C [2]: 97.3%
viability, T/C [3]: 96.9%
viability, T/C [4]: 108%
viability, T/C [5]: 104%
viability, T/C [6]: 107%
viability, T/C [7]: 111%
viability, T/C [8]: 105%
viability, T/C [9]: 99.3%
viability, T/C [10]: 119%
viability, T/C [11]: 113%
viability, T/C [12]: 108%
viability, T/C [13]: 110%
viability, T/C [14]: 114%
viability, T/C [15]: 107%
viability, T/C [16]: 88.7%
viability, T/C [17]: 118%
viability, T/C [18]: 105%
viability, T/C [19]: 95.9%
viability, T/C [20]: 93.3%
viability, T/C [21]: 98.9%
viability, T/C [22]: 93.6%
viability, T/C [23]: 106%
viability, T/C [24]: 86%
viability, T/C [25]: 77%
viability, T/C [26]: 78.6%
viability, T/C [27]: 84.9%
viability, T/C [28]: 79.5%
viability, T/C [29]: 88.8%
viability, T/C [30]: 99.6%
viability, T/C [31]: 66%
viability, T/C [32]: 68.7%
viability, T/C [33]: 78.4%
viability, T/C [34]: 78.8%
viability, T/C [35]: 74.1%
viability, T/C [36]: 70.1%

Compound: O=C(NO)c1cnc(N2CCN(S(=O)(=O)c3ccc4ccccc4c3)CC2)nc1 + CN(C)c1ccc(Nc2c3ccc(NC(=O)CCN4CCCC4)cc3nc3cc(NC(=O)CCN4CCCC4)ccc23)cc1
IC50 (second compound 0.0316 µM): 0.683 µM
IC50 (second compound 0.1 µM): 0.702 µM
IC50 (second compound 0.316 µM): 0.579 µM
IC50 (second compound 1 µM): 0.5 µM
IC50 (second compound 3.16 µM): 0.519 µM
IC50 (second compound 10 µM): 0.218 µM
viability, T/C [1]: 91.8%
viability, T/C [2]: 117%
viability, T/C [3]: 78.7%
viability, T/C [4]: 35.9%
viability, T/C [5]: 0.8%
viability, T/C [6]: 0.93%
viability, T/C [7]: 106%
viability, T/C [8]: 100%
viability, T/C [9]: 86.5%
viability, T/C [10]: 34.5%
viability, T/C [11]: 0.82%
viability, T/C [12]: 0.44%
viability, T/C [13]: 83.7%
viability, T/C [14]: 91.2%
viability, T/C [15]: 75.6%
viability, T/C [16]: 26.5%
viability, T/C [17]: 1.07%
viability, T/C [18]: 1.4%
viability, T/C [19]: 80.4%
viability, T/C [20]: 68.9%
viability, T/C [21]: 64.2%
viability, T/C [22]: 29.9%
viability, T/C [23]: 1.26%
viability, T/C [24]: 0.73%
viability, T/C [25]: 71.7%
viability, T/C [26]: 64.6%
viability, T/C [27]: 76.8%
viability, T/C [28]: 22%
viability, T/C [29]: 1.42%
viability, T/C [30]: 0.69%
viability, T/C [31]: 61%
viability, T/C [32]: 59%
viability, T/C [33]: 43.7%
viability, T/C [34]: 26.7%
viability, T/C [35]: 1.36%
viability, T/C [36]: 2.05%

Compound: C=CCn1c(=O)c2cnc(Nc3ccc(N4CCN(C)CC4)cc3)nc2n1-c1cccc(C(C)(C)O)n1 + Cc1cnc(CNC(=O)c2c(=O)c3ccc(N4CCCN(C)CC4)nc3n3c2sc2ccccc23)cn1
IC50 (second compound 0.0316 µM): > 10 µM
IC50 (second compound 0.1 µM): > 10 µM
IC50 (second compound 0.316 µM): > 10 µM
IC50 (second compound 1 µM): > 10 µM
IC50 (second compound 3.16 µM): > 10 µM
IC50 (second compound 10 µM): > 10 µM
viability, T/C [1]: 105%
viability, T/C [2]: 106%
viability, T/C [3]: 100%
viability, T/C [4]: 97.1%
viability, T/C [5]: 78.4%
viability, T/C [6]: 91.5%
viability, T/C [7]: 109%
viability, T/C [8]: 132%
viability, T/C [9]: 99.7%
viability, T/C [10]: 93.9%
viability, T/C [11]: 85.9%
viability, T/C [12]: 83.3%
viability, T/C [13]: 106%
viability, T/C [14]: 102%
viability, T/C [15]: 100%
viability, T/C [16]: 91.1%
viability, T/C [17]: 89.9%
viability, T/C [18]: 90%
viability, T/C [19]: 100%
viability, T/C [20]: 78.2%
viability, T/C [21]: 82.8%
viability, T/C [22]: 75.3%
viability, T/C [23]: 79.2%
viability, T/C [24]: 96.8%
viability, T/C [25]: 73.1%
viability, T/C [26]: 65.4%
viability, T/C [27]: 69.8%
viability, T/C [28]: 67.8%
viability, T/C [29]: 71.5%
viability, T/C [30]: 69.2%
viability, T/C [31]: 58.9%
viability, T/C [32]: 70.4%
viability, T/C [33]: 56.4%
viability, T/C [34]: 58.3%
viability, T/C [35]: 69.8%
viability, T/C [36]: 62%

The next lines start with results.

IC50 (second compound 0.0316 µM): > 10 µM
IC50 (second compound 0.1 µM): > 10 µM
IC50 (second compound 0.316 µM): > 10 µM
IC50 (second compound 1 µM): > 10 µM
IC50 (second compound 3.16 µM): > 10 µM
IC50 (second compound 10 µM): > 10 µM
Compound: C=CC(=O)N1CCN(c2nc(=O)n(-c3c(C)ccnc3C(C)C)c3nc(-c4c(O)cccc4F)c(F)cc23)C(C)C1 (stereo not given) + Cc1cnc(CNC(=O)c2c(=O)c3ccc(N4CCCN(C)CC4)nc3n3c2sc2ccccc23)cn1
viability, T/C [1]: 107%
viability, T/C [2]: 114%
viability, T/C [3]: 115%
viability, T/C [4]: 107%
viability, T/C [5]: 100%
viability, T/C [6]: 91.5%
viability, T/C [7]: 101%
viability, T/C [8]: 102%
viability, T/C [9]: 107%
viability, T/C [10]: 124%
viability, T/C [11]: 125%
viability, T/C [12]: 111%
viability, T/C [13]: 103%
viability, T/C [14]: 106%
viability, T/C [15]: 110%
viability, T/C [16]: 89.2%
viability, T/C [17]: 124%
viability, T/C [18]: 96%
viability, T/C [19]: 86.5%
viability, T/C [20]: 91%
viability, T/C [21]: 88.2%
viability, T/C [22]: 91.6%
viability, T/C [23]: 100%
viability, T/C [24]: 81%
viability, T/C [25]: 74.5%
viability, T/C [26]: 84%
viability, T/C [27]: 89.3%
viability, T/C [28]: 81.4%
viability, T/C [29]: 89.4%
viability, T/C [30]: 76.8%
viability, T/C [31]: 74.4%
viability, T/C [32]: 74%
viability, T/C [33]: 74.7%
viability, T/C [34]: 83.4%
viability, T/C [35]: 78%
viability, T/C [36]: 68.5%

IC50 (second compound 0.0316 µM): 3.14 µM
IC50 (second compound 0.1 µM): 4.18 µM
IC50 (second compound 0.316 µM): 3.88 µM
IC50 (second compound 1 µM): 2.61 µM
IC50 (second compound 3.16 µM): 1.19 µM
IC50 (second compound 10 µM): 1.04 µM
Compound: CC(C)(O)C1CCC(Nc2ccc3ncc(-c4cccc(C(F)(F)F)c4)n3n2)CC1 (stereo not given) + Cc1cnc(CNC(=O)c2c(=O)c3ccc(N4CCCN(C)CC4)nc3n3c2sc2ccccc23)cn1
viability, T/C [1]: 112%
viability, T/C [2]: 86.4%
viability, T/C [3]: 93.2%
viability, T/C [4]: 70.3%
viability, T/C [5]: 44.2%
viability, T/C [6]: 40.6%
viability, T/C [7]: 108%
viability, T/C [8]: 103%
viability, T/C [9]: 91.2%
viability, T/C [10]: 79.1%
viability, T/C [11]: 45.5%
viability, T/C [12]: 48.1%
viability, T/C [13]: 94%
viability, T/C [14]: 89.9%
viability, T/C [15]: 79.4%
viability, T/C [16]: 71.1%
viability, T/C [17]: 50.4%
viability, T/C [18]: 39.9%
viability, T/C [19]: 88.5%
viability, T/C [20]: 73.2%
viability, T/C [21]: 77.2%
viability, T/C [22]: 67%
viability, T/C [23]: 45.2%
viability, T/C [24]: 36.7%
viability, T/C [25]: 73.8%
viability, T/C [26]: 65.6%
viability, T/C [27]: 64.9%
viability, T/C [28]: 55%
viability, T/C [29]: 28.4%
viability, T/C [30]: 11.7%
viability, T/C [31]: 62%
viability, T/C [32]: 69.4%
viability, T/C [33]: 62.5%
viability, T/C [34]: 51.8%
viability, T/C [35]: 9.65%
viability, T/C [36]: 0.29%

Source: PubChem BioAssay AID2060502 (Molecular Pharmacology Branch, DTP, NCI, 2025)
